In PubChem BioAssay (NCI):
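GI50: concentration for 50% inhibition of growth. TGI marks complete inhibition of growth.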

Assays:
Assay in all cases: NCI anticancer screen, dose series, 384-well format
[1] = test system: CAKI-1 renal
[2] = test system: HCT-15 colon
[3] = test system: EKVX NSCLC
[4] = test system: SF-539 CNS
[5] = test system: NCI-H322M lung
[6] = test system: MDA-MB-435 melanoma
[7] = test system: A498 renal
[8] = test system: OVCAR-3 ovarian
[9] = test system: SK-MEL-5 melanoma
[10] = test system: UO-31 renal
[11] = test system: SNB-19 CNS
[12] = test system: CCRF-CEM leukemia
[13] = test system: NCI/ADR-RES ovarian
[14] = test system: SW-620 colon
[15] = test system: TK-10 renal
[16] = test system: NCI-H522 lung
[17] = test system: NCI-H460 NSCLC
[18] = test system: NCI-H23 lung
[19] = test system: A549 NSCLC
[20] = test system: KM12 colon
[21] = test system: K-562 leukemia
[22] = test system: SF-295 CNS
[23] = test system: HCT-116 colon
[24] = test system: ACHN renal
[25] = test system: HOP-62 NSCLC
[26] = test system: MALME-3M melanoma
[27] = test system: MCF7 breast
[28] = test system: HS 578T breast
[29] = test system: SF-268 CNS
[30] = test system: U251 glioblastoma
[31] = test system: T-47D breast
[32] = test system: MDA-MB-468 breast
[33] = test system: NCI-H226 lung
[34] = test system: HOP-92 NSCLC
[35] = test system: OVCAR-8 ovarian
[36] = test system: SN12C renal
[37] = test system: IGROV1 ovarian
[38] = test system: DU-145 prostate
[39] = test system: SK-OV-3 ovarian
[40] = test system: 786-0 renal
[41] = test system: MDA-MB-231 breast
[42] = test system: RPMI-8226 leukemia
[43] = test system: M14 melanoma
[44] = test system: OVCAR-4 ovarian
[45] = test system: HT29 colon
[46] = test system: HCC-2998 colon
[47] = test system: UACC-62 melanoma
[48] = test system: PC-3 prostate
[49] = test system: SNB-75 CNS
[50] = test system: SK-MEL-28 melanoma
[51] = test system: UACC-257 melanoma
[52] = test system: BT-549 breast
[53] = test system: LOX IMVI melanoma
[54] = test system: OVCAR-5 ovarian

SMILES: COc1ccc2c(c1)[C@]1(C[C@H]1c1ccc3c(/C=C/c4ccc(CN5C[C@@H](C)O[C@@H](C)C5)cc4)n[nH]c3c1)C(=O)N2
- GI50 [1]: 3.6 µM
- TGI [1]: > 100 µM
- GI50 [2]: 2.67 µM
- TGI [2]: 8.83 µM
- GI50 [3]: 3.76 µM
- TGI [3]: 46.8 µM
- GI50 [4]: 1.3 µM
- TGI [4]: 2.64 µM
- GI50 [5]: 4.48 µM
- TGI [5]: > 100 µM
- GI50 [6]: 4.64 µM
- TGI [6]: 17.4 µM
- GI50 [7]: 2.33 µM
- TGI [7]: 6.32 µM
- GI50 [8]: 1.33 µM
- TGI [8]: 2.89 µM
- GI50 [9]: 1.5 µM
- TGI [9]: 2.85 µM
- GI50 [10]: 4.2 µM
- TGI [10]: 68.1 µM
- GI50 [11]: 3.34 µM
- TGI [11]: 92.7 µM
- GI50 [12]: < 0.01 µM
- GI50 [13]: 1.82 µM
- TGI [13]: 7.14 µM
- GI50 [14]: 2.62 µM
- TGI [14]: 11.9 µM
- GI50 [15]: 3.66 µM
- TGI [15]: 27.9 µM
- GI50 [16]: 2.29 µM
- TGI [16]: > 100 µM
- GI50 [17]: < 0.01 µM
- TGI [17]: 2.02 µM
- GI50 [18]: 1.67 µM
- TGI [18]: 4.27 µM
- GI50 [19]: 1.19 µM
- TGI [19]: 32.2 µM
- GI50 [20]: 0.0171 µM
- TGI [20]: 1.68 µM
- GI50 [21]: 0.219 µM
- TGI [21]: 0.896 µM
- GI50 [22]: 2.74 µM
- TGI [22]: 15.1 µM
- GI50 [23]: 1.56 µM
- TGI [23]: 6.47 µM
- GI50 [24]: 2.73 µM
- TGI [24]: 16.8 µM
- GI50 [25]: 1.07 µM
- TGI [25]: 3.32 µM
- GI50 [26]: 1.26 µM
- TGI [26]: 2.64 µM
- GI50 [27]: 1.64 µM
- TGI [27]: 3.31 µM
- GI50 [28]: 2.23 µM
- TGI [28]: 4.38 µM
- GI50 [29]: < 0.01 µM
- TGI [29]: 2.81 µM
- GI50 [30]: 2.34 µM
- TGI [30]: 6.9 µM
- GI50 [31]: 2.07 µM
- TGI [31]: 5.25 µM
- GI50 [32]: < 0.01 µM
- TGI [32]: 0.07 µM
- GI50 [33]: 1.25 µM
- TGI [33]: 14.2 µM
- GI50 [34]: 2.19 µM
- TGI [34]: 7.29 µM
- GI50 [35]: 2.3 µM
- TGI [35]: 9.75 µM
- GI50 [36]: 3.57 µM
- TGI [36]: 52.9 µM
- GI50 [37]: 4.81 µM
- TGI [37]: > 100 µM
- GI50 [38]: 3.11 µM
- TGI [38]: 12.9 µM
- GI50 [39]: 3.29 µM
- TGI [39]: 33.5 µM
- GI50 [40]: 1.63 µM
- TGI [40]: 3.37 µM
- GI50 [41]: 3.05 µM
- TGI [41]: 10.4 µM
- GI50 [42]: 0.156 µM
- TGI [42]: 3.4 µM
- GI50 [43]: 2.42 µM
- TGI [43]: 11.4 µM
- GI50 [44]: 5.15 µM
- TGI [44]: 28 µM
- GI50 [45]: 1.82 µM
- TGI [45]: 3.56 µM
- GI50 [46]: 2.73 µM
- TGI [46]: 5.41 µM
- GI50 [47]: 1.81 µM
- TGI [47]: 11 µM
- GI50 [48]: 3.28 µM
- TGI [48]: 11 µM
- GI50 [49]: 1.73 µM
- TGI [49]: 4.27 µM
- GI50 [50]: 5.22 µM
- TGI [50]: 20.9 µM
- GI50 [51]: 2.64 µM
- TGI [51]: 8.98 µM
- GI50 [52]: 1.68 µM
- TGI [52]: 3.22 µM
- GI50 [53]: 1.65 µM
- TGI [53]: 3.64 µM
- GI50 [54]: 4.13 µM
- TGI [54]: 64.5 µM
